From ChEMBL document CHEMBL3988442, “University of Dundee, Small-Polar-MMV Screening Library” (2021)

Tests used:
[1] = microbe, parasite or virus in culture; conditions: Mycobacterium tuberculosis, 72 h, read-out: pIC50 (converted)
[2] = microbe, parasite or virus in culture; conditions: Mycobacterium tuberculosis, 96 h, read-out: pIC50 (converted)

Compound	IC50 [1] [µM]	IC50 [2] [µM]
COc1cccc(S(=O)(=O)CCN2CCN(C)CC2)c1	> 501	> 501
O=C1CCCN1CCCNS(=O)(=O)c1ccc(Br)s1	> 501	6.97
Cc1cccc(NC(=O)C(C)Oc2ccc3c(c2)OCO3)n1 (configuration not stated)	16	5.27
c1cn(C2CCNCC2)nn1	354	409
CNC(=O)CN1CCC(OCCCc2ccccc2)C1 (configuration not stated)	161	> 501
COc1cccc(CCN)n1	194	192
COC(=O)c1ccc(CSc2n[nH]c(C)n2)o1	239	181
CCCn1nnc(NCc2ccc(OC)cc2)n1	115	25.1
CC(C)(C)OC(=O)N1CC(F)(F)CC1CO (configuration not stated)	> 501	> 501
CNC(=O)NC(=O)C(C)Nc1cccc(C)c1 (configuration not stated)	201	190
CCCOc1ccc(CNC(=O)c2cc[nH]n2)cn1	114	> 501
CC(C)N(CCS(=O)(=O)c1ccccc1)CC(N)=O	435	> 501
COc1ccc(NC(=O)N2CCCN(C)CC2)cc1F	> 501	> 501
OC(CN1CCn2ccnc2C1)c1ccc(Cl)cc1 (configuration not stated)	186	> 501
CCc1nc(CN(C)Cc2nnc(-c3cccs3)o2)cs1	12.2	8.56
CCS(=O)(=O)c1ccc(CNc2ncccc2Cl)cc1	242	> 501
COc1cccc(-c2noc(-c3ccc(NCC(C)O)nc3)n2)c1OC (configuration not stated)	> 50.1	19.4
Cn1nnc(NCc2ccc(-c3ccc(Cl)cc3)o2)n1	42.2	8.3
COC(=O)NCCc1ccccc1OC	98.5	> 501
OCCCNC(c1ccccc1)c1ccccn1 (configuration not stated)	> 501	> 501
CC(C)CCC(C)NC(=O)Nc1ccccn1 (configuration not stated)	13.6	5.47
CCn1nnc2c1C(COCC(=O)N(C)C)CN(Cc1ccoc1)C2 (configuration not stated)	> 50.1	> 50.1

Compound	IC50 [1] [µM]	IC50 [2] [µM]
CN(c1ccc(F)cc1)S(=O)(=O)N1CCCCC1	204	267
CC(C)(C)OC(=O)N1CCN(C2CCC(N)CC2)CC1 (configuration not stated)	> 501	> 501
OCCNCCNCc1ccc(-c2ccccc2Cl)o1	136	34.4
NCC(=O)Nc1ccc(Cl)c(F)c1	212	120
CCOc1ccc(N(CC(=O)c2ccccc2)C2=NCCCCC2)cc1	22.4	27.6
Cn1nc(CN2CCCN(C3CCCC3)CC2)c2c(Cl)cccc21	44.8	39.8
CCCC(C#N)NC(=O)c1ccn(-c2ccccc2)n1 (configuration not stated)	294	> 501
N#Cc1cccc(S(=O)(=O)N2CCCCC2CCN2CCCC2)c1 (configuration not stated)	14.3	8.72
CN(C)c1cc(Cn2cnc3sccc3c2=O)ccn1	> 501	> 501
O=C(NCC(F)(F)F)C1CN(C(=O)c2cnccn2)C1	> 50.1	> 50.1
CCCC(C)NC(=O)c1coc(C)n1 (configuration not stated)	> 501	> 501
O=C1CCN(Cc2cc(Br)cc3cccnc23)CCN1	493	> 501
O=C(c1cnsn1)N1CC=C(c2ccccc2)CC1	35.1	237
CCOc1cccc(CSc2nc(=O)ccn2CC)n1	460	> 501
CC(NC(=O)CNc1ccccc1F)c1ccco1 (configuration not stated)	51.7	4.24
O=C(NC1CC1)c1cccc(CNc2ccccn2)c1	220	> 501
O=C1C=CC(=O)N1Cc1ccc(Cl)cc1	129	174
CCC1(CC)CN(C(=O)NCCC(C)C)CCS1(=O)=O	> 501	407
CSc1nccc(N2CCC3(CCCN(Cc4ccc(F)cc4)C3)C2)n1 (configuration not stated)	27.2	25.2
COCCN(Cc1ccsc1)C(=O)CC1CCNC1 (configuration not stated)	187	80.1
CC(C)(C)OC(=O)N1CCCC1CN (configuration not stated)	368	207
CCOc1ccc(Cl)cc1CNCCNCC(C)O (configuration not stated)	254	30.7

Compound	IC50 [1] [µM]	IC50 [2] [µM]
Cc1nc(C2CCCN(C(=O)c3ccc(S(C)(=O)=O)cc3)C2)no1 (configuration not stated)	> 50.1	> 50.1
OCCCn1nnc(-c2ccccc2)n1	158	120
O=C(NC[C@H]1CC[C@H](c2ccnc3ncnn32)CC1)C1CC1	> 50.1	> 50.1
CN(CC1CCOCC1)C(=O)NCc1ccco1	95.8	125
CNC(=O)CSCc1nc(-c2ccccc2C)no1	134	156
CCNC(=O)NCC(C)Oc1cccc(OC)c1 (configuration not stated)	254	301
Cc1nn(CCO)c(NCc2cccc(F)c2)c1C	> 501	> 501
CCCc1nn(Cc2csc(C(C)C)n2)c(=O)o1	3.08	20.4
CCn1nc(C)c2nc(C)nc(NCCc3ccc(C)cc3)c21	47.4	42.5
O=C(Cn1ccc(C(F)(F)F)n1)Nc1ccccn1	224	> 501
CN1CCN(C(=O)c2cc3c(F)cccc3s2)CC1	165	> 501
O=C(CCC(F)(F)F)N1CCCC(CO)(CC2CC2)C1 (configuration not stated)	2.54	4.11
OCC1CCN(CCc2ccccc2)C1 (configuration not stated)	393	243
COc1cccc(-c2ccc(CNS(N)(=O)=O)cc2)c1	159	283
NCC1CCCN1CCc1ccccc1 (configuration not stated)	> 501	> 501
CC1CN(C(=O)c2cnsn2)c2cccc(Cl)c2O1 (configuration not stated)	67.6	> 501
Cc1cc(C[C@@H]2COC[C@H]2NCc2ccc(C(C)C)cc2)on1	34.6	11.5
CCCC(C)CS(=O)(=O)NCc1ccncc1 (configuration not stated)	115	123
CCc1ccc(OCn2cc(N)cn2)cc1	292	134
COc1ccc(C(=O)CCN(C)C)cc1OC	276	285
COC(=O)[C@H](C)NC(=O)C1(c2ccccc2F)CC1	187	> 501
OCCCN1CCC(=Cc2ccccc2)CC1	277	250

Compound	IC50 [1] [µM]	IC50 [2] [µM]
Cc1nn(CCCN)c(C)c1Br	266	> 501
c1cc(-c2ccn(CCN3CCCC3)n2)cc(-c2nccs2)c1	43.6	27.4
OCC(O)CSCCc1ccccc1Cl (configuration not stated)	136	473
COc1ccc(C(=O)NCCCC2(C3OCCO3)CCOCC2)cc1	> 50.1	> 50.1
O=C(NCc1nnc2n1CCCCC2)N(Cc1ccncc1)C1CC1	> 50.1	> 50.1
CC1=CC(=O)N(Cc2ccccc2)C1=O	49.8	81.5
NCC1Cc2ccccc21 (configuration not stated)	114	278
COC(=O)COn1c(SC(C)C)nc2ccccc2c1=O	43.2	> 50.1
O=C(c1cnsn1)N1CCCSc2ccc(F)cc21	200	164
Cc1ccc(N(CC(=O)c2ccc(Br)cc2)C2=NCCCCC2)cc1	11.1	23.1
COc1coc(CN2CCCC(CCc3ccccc3F)C2)cc1=O (configuration not stated)	47.3	13.3
CCSC1=Nc2c(cnn2-c2ccc(Cl)cc2)C2=NCCCN12	12.8	17.1
CCc1noc(CSc2n[nH]c(-c3ccccn3)n2)n1	> 50.1	25.1
CCNC(=O)c1cc(-c2ccc(F)cc2)n[nH]1	209	> 501
c1snnc1CNCC1COC2(CCCCC2)O1 (configuration not stated)	> 501	268
Cc1ncsc1CCCNC(=O)c1cnccn1	> 501	> 501
CNC(=O)c1cccc(CNC(C)c2ccc(F)cc2N(C)C)c1 (configuration not stated)	> 50.1	> 50.1
Clc1ccc(CSc2cnn[nH]2)s1	236	267
Cc1noc(CNC(CCO)C(C)C)n1 (configuration not stated)	> 501	> 501
COCC(=O)NC1CCc2ccccc21 (configuration not stated)	114	124
CC1CCC(NC(=O)Cn2cnc(C#N)n2)CC1 (configuration not stated)	101	98.1
CN(Cc1ccc(O)cc1)C(=O)c1cc(Cl)c[nH]1	173	187

Compound	IC50 [1] [µM]	IC50 [2] [µM]
O=C(NC1CCCNC1)c1coc2ccccc12 (configuration not stated)	> 501	> 501
CCNCc1ccc2c(c1)OCO2	280	> 501
CCN1C(=O)C2(CCOCC2)c2cc(NC(=O)c3cnoc3C)ccc21	> 50.1	> 50.1
CCC[C@@H]1CN(Cc2ccc3c(c2)OCCO3)C[C@H]1C(=O)O	> 50.1	> 50.1
COCCOCCCNC(=O)c1cn2cc(C)nc2s1	271	> 501
CCCn1ccc(NC(=O)c2cccc(C#N)c2)n1	> 501	> 501
COCCOc1ccc(C(=O)NCc2ccco2)cc1	109	61.7
CCC(CO)NCc1ccc(-c2ccc(Br)cc2)o1 (configuration not stated)	44.3	27.5
CNC(=O)C1CCN(C(=O)CCc2cccs2)CC1	38.8	111
CCCc1nc(CN2Cc3ncccc3C2=O)cs1	120	119
Cc1ccc(CN2CCOC3(CCN(C(=O)C4CC=CC4)CC3)C2)cc1	30.5	40.9
COc1cccc(-n2nnc(C(=O)NC3CC3)c2C)c1	232	209
CC(=O)N1CCC(CN(C)Cc2ccc(Br)o2)C1 (configuration not stated)	> 501	> 501
C=Cc1ccc(CN2C(=O)C3(CCNCC3)Nc3ccccc32)cc1	28.2	26.5
COc1cc(-c2cccc3c2OC(CN)C3)cc(OC)c1OC (configuration not stated)	43.9	43.9
CCc1nc(CNC)cs1	305	236
CCC(C)(C)NC(=O)c1nn(-c2ccccc2)nc1C	199	298
CC(C)(O)CSc1nnc(NCc2ccco2)s1	118	55.2
